Assay results: paper PMC12751066, “Plastidial phosphoglucose isomerase undergoes thioredoxin-mediated redox modification without altering catalytic activity” (Biochemical Journal, 2025)

Tests used:
[1] = target: T1, PGI1 (Arabidopsis thaliana, UniProt Q8H103); assay: inhibition at varying E4P concentrations, coupled spectrophotometric assay; type: biochemical; settings: F6P or G6P as substrate; 25 °C; reduced and oxidized PGI1
T1 construct: homodimer reported as functional unit
T1 sequence (Q8H103 70-613): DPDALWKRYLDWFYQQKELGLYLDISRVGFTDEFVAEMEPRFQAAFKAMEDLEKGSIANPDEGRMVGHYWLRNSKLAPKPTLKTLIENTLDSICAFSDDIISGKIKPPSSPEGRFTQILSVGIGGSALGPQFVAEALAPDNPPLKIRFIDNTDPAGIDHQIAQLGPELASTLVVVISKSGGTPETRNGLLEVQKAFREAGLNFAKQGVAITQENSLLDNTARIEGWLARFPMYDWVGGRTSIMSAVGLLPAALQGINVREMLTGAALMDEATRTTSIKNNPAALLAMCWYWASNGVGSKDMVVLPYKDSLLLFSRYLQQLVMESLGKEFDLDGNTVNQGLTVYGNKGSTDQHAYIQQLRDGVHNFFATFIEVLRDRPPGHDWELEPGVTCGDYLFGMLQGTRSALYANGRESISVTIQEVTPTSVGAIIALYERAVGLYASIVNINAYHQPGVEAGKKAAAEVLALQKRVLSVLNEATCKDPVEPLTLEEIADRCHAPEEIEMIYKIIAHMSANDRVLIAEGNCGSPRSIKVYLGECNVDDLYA

[2] = target: T1, PGI1; assay: inhibition at varying 6PG concentrations, coupled spectrophotometric assay; type: biochemical; settings: F6P or G6P as substrate; 25 °C; reduced and oxidized PGI1

O=C[C@H](O)[C@H](O)COP(=O)(O)O [E4P]
inhibition at varying E4P concentrations, coupled spectrophotometric assay [1]: PGI1 activity decreased with increasing concentrations of E4P (Figure 9A and B)

O=C(O)[C@H](O)[C@@H](O)[C@H](O)[C@H](O)COP(=O)(O)O [6PG]
inhibition at varying 6PG concentrations, coupled spectrophotometric assay [2]: PGI1 activity decreased with increasing concentrations of E4P (Figure 9A and B) and 6PG
